According to patent publication EP1210346B1, “NEW ACTIVE MARINE ALKALOIDS” (Instituto Biomar S.A., priority 1999, dated 2001):

Tests used:
[1] = Stability in acid and basic media
[2] = tested on: MEL-28 (monolayer culture of a human melanoma); assay: Antitumour screening, growth inhibition of MEL-28 cells (adapted Bergeron method, Crystal Violet staining); format: cell-based; details: SK-MEL-28, 72 h, three days of incubation at 37°C, approximate IC50, duplicate
Description: (§1) Cells were maintained in logarithmic phase of growth in Eagle's Minimum Essential Medium, with Earle's Balanced Salts, with 2.0 mM L-glutamine, with non-essential amino acids, without sodium bicarbonate (EMEM/neaa); supplemented with 10% Fetal Calf Serum (FCS), 10^-2 M sodium bicarbonate and 0.1 g/l penicillin-G + streptomycin sulfate.
(§2) A screening procedure has been carried out to determine and compare the antitumour activity of these compounds, using an adapted form of the method described by Bergeron et al (Raymond J Bergeron, Paul F Cavanaugh, Jr, Steven J Kline, Robert G Hughes, Jr, Gary T Elliot and Carl W Porter. Antineoplastic and antiherpetic activity of spermidine catecholamide iron chelators. Biochem. Bioph. Res. Comm. 1984, 121, 848-854). The antitumour cells employed were P-388 (suspension culture of a lymphoid neoplasm from DBA/2 mouse), A-549 (monolayer culture of a human lung carcinoma), HT-29 (monolayer culture of a human colon carcinoma) and MEL-28 (monolayer culture of a human melanoma).
(§3) A-549, HT-29 and MEL-28 cells were seeded into 16 mm wells at 2 x 10^4 cells per well in 1 ml aliquots of MEM 10FCS containing the indicated concentration of drug. […] An approximately IC50 was determined by comparing the growth in wells with drug to the growth in wells control.

[3] = tested on: Gram-positive bacteria (Staphylococcus and others); assay: Activity against Gram-positive bacteria; format: cell-based
[4] = tested on: HT-29 (monolayer culture of a human colon carcinoma); assay: Antitumour screening, growth inhibition of HT-29 cells (adapted Bergeron method, Crystal Violet staining); format: cell-based; details: 72 h, three days of incubation at 37°C, approximate IC50, duplicate
Description: as §1, §2, §3

[5] = tested on: A-549 (monolayer culture of a human lung carcinoma); assay: Antitumour screening, growth inhibition of A-549 cells (adapted Bergeron method, Crystal Violet staining); format: cell-based; details: A549, 72 h, three days of incubation at 37°C, approximate IC50, duplicate
Description: as §1, §2, §3

[6] = tested on: P-388 (suspension culture of a lymphoid neoplasm from DBA/2 mouse); assay: Antitumour screening, growth inhibition of P-388 cells (adapted Bergeron method); format: cell-based; details: P388, 72 h, three days of incubation at 37°C, approximate IC50, duplicate
Description: as §1, §2
P-388 cells were seeded into 16 mm wells at 1 x 10^4 cells per well in 1 ml aliquots of MEM SFCS containing the indicated concentration of drug. A separate set of cultures without drug was seeded as control growth to ensure that cells remained in exponential phase of growth. All determinations were carried out in duplicate. […]

## COC1=C(C)C(=O)C2=C(C1=O)C1C3CC4=C(C(=O)C(OC)=C(C)C4=O)C(COC(C)=O)N3C(O)C(C2)N1C (stereo not drawn) [Jorumycin]
[1]
  stability: highly unstable
[2]
  IC50: 20 nM
[3]
  activity against Gram-positive bacteria: showed also activity
[4]
  IC50: 20 nM
[5]
  IC50: 20 nM
[6]
  IC50: 20 nM
